Structures are written as SMILES.

For the first assay, the target named is T1, α2-GABAA receptor (Homo sapiens, UniProt P18507+P47869).
T1 construct: expressed in transfected cells
T1 sequence (P47869 29-451): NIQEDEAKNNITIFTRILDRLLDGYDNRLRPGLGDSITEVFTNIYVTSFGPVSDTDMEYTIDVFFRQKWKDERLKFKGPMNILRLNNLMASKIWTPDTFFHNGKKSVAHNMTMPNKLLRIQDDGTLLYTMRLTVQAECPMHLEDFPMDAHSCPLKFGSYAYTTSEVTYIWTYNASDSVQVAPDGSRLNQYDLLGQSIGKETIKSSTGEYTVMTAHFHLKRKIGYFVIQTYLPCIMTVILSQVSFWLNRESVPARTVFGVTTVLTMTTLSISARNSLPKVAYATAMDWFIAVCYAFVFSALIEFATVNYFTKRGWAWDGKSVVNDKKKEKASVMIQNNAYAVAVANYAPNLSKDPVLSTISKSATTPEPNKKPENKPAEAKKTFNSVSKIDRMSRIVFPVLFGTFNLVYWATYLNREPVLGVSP
T1 sequence (P18507 40-467 isoform P18507-1 limits assumed): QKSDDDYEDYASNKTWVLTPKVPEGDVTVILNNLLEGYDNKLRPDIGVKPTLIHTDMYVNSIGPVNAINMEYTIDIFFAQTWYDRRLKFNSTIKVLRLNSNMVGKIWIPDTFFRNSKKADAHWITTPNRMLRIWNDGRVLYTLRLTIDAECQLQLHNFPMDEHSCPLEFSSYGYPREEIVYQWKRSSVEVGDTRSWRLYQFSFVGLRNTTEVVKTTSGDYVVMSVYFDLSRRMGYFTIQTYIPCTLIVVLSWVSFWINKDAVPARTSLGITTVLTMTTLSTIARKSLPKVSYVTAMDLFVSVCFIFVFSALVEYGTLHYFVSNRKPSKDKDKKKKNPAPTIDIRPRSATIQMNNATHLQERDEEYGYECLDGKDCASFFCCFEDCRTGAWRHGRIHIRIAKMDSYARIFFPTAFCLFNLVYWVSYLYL
T1 sequence (P28472 26-473 partner): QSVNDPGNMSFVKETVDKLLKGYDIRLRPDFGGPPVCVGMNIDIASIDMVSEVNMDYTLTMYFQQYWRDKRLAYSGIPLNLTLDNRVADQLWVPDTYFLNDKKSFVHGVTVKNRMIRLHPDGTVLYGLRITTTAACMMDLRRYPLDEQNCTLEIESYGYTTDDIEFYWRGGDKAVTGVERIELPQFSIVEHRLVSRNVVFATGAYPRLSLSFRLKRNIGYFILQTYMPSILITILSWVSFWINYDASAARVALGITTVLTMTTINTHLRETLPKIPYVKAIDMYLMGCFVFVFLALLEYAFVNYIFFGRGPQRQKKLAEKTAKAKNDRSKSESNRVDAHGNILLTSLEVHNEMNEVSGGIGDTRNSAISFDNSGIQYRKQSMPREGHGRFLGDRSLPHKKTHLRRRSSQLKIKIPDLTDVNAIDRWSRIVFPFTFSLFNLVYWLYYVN
In words: Whole-cell patch-clamp electrophysiology, positive allosteric modulatory activity in α2-GABAAR-HEK293 cells. Particulars: compound 100 nM; GABA 0.10 to 0.11 µM (approximately EC7-8); normalized to reference compound CVL-865 (= 100%). The class given is cell-based. From the text:
The α subunit, β subunit, and γ subunit are indispensable for forming a fully functional GABAA receptor. In this example, HEK293 cells stably expressing α2-GABAA receptors (α2-GABAAR) were constructed and screened respectively via liposome transfection (Felgner, P.L., et al. Proceedings of the National Academy of Sciences, 1987, 84: 7413-7417). The α2-GABAAR-HEK293 cell model co-expresses the α2 subunit (protein sequence referenced under GenBank accession number: NM_000807.4), β3 subunit (protein sequence referenced under GenBank accession number: NM_000814.5), and γ2 subunit (protein sequence referenced under GenBank accession number: NM_000816.3).
The above cell lines were subcultured. α2-GABAAR-HEK293 cells were amplified for testing the affinity of compounds to the benzodiazepine (BZD) site of GABAA receptors. Some of the α2-GABAAR-HEK293 cells in suspension during subculturing were plated on glass slides pre-treated with Poly-D-Lysine for electrophysiological testing (method reference: Patent CN 107344936 A, paragraph 0586).
The positive modulatory activity of the test drug on the α2-GABAA receptor was assessed using electrophysiological methods. The specific approach is as follows:
With regards to the concentration of the compound, the final concentration of all compounds used in the screening was 100 nM. For cell lines expressing α2-GABAA receptors, the GABA concentration was 0.10 to 0.11 µM (approximately EC7-8). Electrophysiological experiments were conducted using the whole-cell patch-clamp technique, which can be referenced to the method reported in the literature (Nickolls, S. A., et al. *British Journal of Pharmacology*, 2018, 175: 708-725). The composition of the extracellular solution (ECS) for electrophysiology was as follows: 150 mM NaCl, 5 mM KCl, 2.5 mM CaCl2, 1 mM MgCl2, 10 mM HEPES, and 10 mM glucose (pH 7.4). The intracellular solution (ICS) for electrophysiology was formulated as follows: 140 mM CsCl, 11 mM EGTA, 10 mM HEPES, 2 mM CaCl2, 1 mM MgCl2, 4 mM MgATP, and 2 mM TEA (pH 7.3). GABA (γ-aminobutyric acid) powder was dissolved in pure water to prepare a stock solution, which was subsequently diluted in ECS. The compound was initially dissolved in dimethyl sulfoxide to prepare a 4 mM stock solution, followed by stepwise dilution into GABA-ECS at corresponding concentrations. All solutions were freshly prepared prior to electrophysiological testing.
Electrophysiological signals were acquired using an EPC 10 amplifier and PatchMaster software (HEKA) or an Axon 700B amplifier and Clampex software (AXON). The recording electrode was pulled from borosilicate glass, with an electrode resistance of 4 to 6 MΩ. Extracellular administration was performed using the ALA-VC-8PG™ system. A single independently growing cell was selected. After forming a tight seal between the glass electrode and the cell membrane, the membrane was ruptured to establish the whole-cell configuration. The cell membrane potential was clamped at -60 mV and recorded in Gap-free mode. During the test, extracellular fluid was first applied externally for approximately 20 seconds. After the baseline (Iprebaseline) was stabilized, the extracellular solution was switched to GABA-ECS. At this point, the current induced by GABA (Igaba) can be detected. After approximately 10 to 20 seconds, once the current had stabilized, the extracellular solution was switched to a mixture of the compound and GABA-ECS until the current induced by both the compound and GABA (Itreatment) could be detected. Finally, the solution was switched to extracellular fluid, and the recording was terminated after 20 to 40 seconds. Only cells with a stable baseline, an absolute control current magnitude (Igaba - Iprebaseline) greater than 40 pA, and a relatively stable current within 10 to 20 seconds were used for compound testing. […]
In general terms: In patch-clamp work, channel activity is measured electrically.
With `CCCNC(=O)c1nc2c(CC(C)C)c(F)ccn2c1N` [Example 119], the “α2-GABAAR Positive allosteric modulatory activity” value was 33%. Still for that read-out and setting: next, `COc1cccc(F)c1-c1c(F)ccn2c(N)c(C(=O)NCCC(F)(F)F)nc12` [Example 125, 3-Amino-7-fluoro-8-(2-fluoro-6-methoxyphenyl)-N-(3,3,3-trifluoropropyl)propylimidazo[1,2-a]pyridine-2-carboxamide]: 70%; `CCCNC(=O)c1nc2c(-c3cc(F)cc(C#N)c3)c(F)ccn2c1N` [Example 127]: 77%. For the compound `COc1cccc(F)c1-c1c(F)ccn2c(N)c(C(=O)NCC=C(F)F)nc12` [Example 131, 3-Amino-N-(3,3-difluoroallyl)-7-fluoro-8-(2-fluoro-6-methoxyphenyl)imidazo[1,2-a]pyridine-2-carboxamide], the “α2-GABAAR Positive allosteric modulatory activity” value was determined as 82%.

Staying with this assay, now noted: compound 100 nM; GABA 0.10 to 0.11 µM (approximately EC7-8); normalized to reference compound CVL-865 (= 100%); read-out: α2-GABAAR Positive allosteric modulatory activity.
`CCCNC(=O)c1nc2c(-c3cnccc3OC)c(F)ccn2c1N` [Example 114, 3-Amino-7-fluoro-8-(4-methoxypyridin-3-yl)-N-propylimidazo[1,2-a]pyridine-2-carboxamide]: the Emax at 0.1 µM came out at 124%. In the case of `CCCNC(=O)c1nc2c(-c3cccnc3OC)c(F)ccn2c1N` [Example 115, 3-Amino-7-fluoro-8-(2-methoxypyridin-3-yl)-N-propylimidazo[1,2-A]pyridine-2-carboxamide], the Emax at 0.1 µM is 123%. Take `CCCNC(=O)c1nc2c(-c3cc(OC)nnc3OC)c(F)ccn2c1N` [Example 117, 3-Amino-8-(3,6-dimethoxypyridazin-4-yl)-7-fluoro-N-propylimidazo[1,2-a]pyridine-2-carboxamide]: the Emax at 0.1 µM is 88%. On the same count and under the same terms, the value for `CCCNC(=O)c1nc2c(-c3c(C#N)cccc3OC)c(F)ccn2c1N` [Example 118, 3-Amino-8-(2-cyano-6-methoxyphenyl)-7-fluoro-N-propylimidazo[1,2-a]pyridine-2-carboxamide] was 51%. Regarding `CCCNC(=O)c1nc2c(-c3cnc(OC)nc3OC)c(F)ccn2c1N` [Example 120, 3-Amino-8-(2,4-dimethoxypyrimidin-5-yl)-7-fluoro-N-propylimidazo[1,2-a]pyridine-2-carboxamide], the Emax at 0.1 µM is 59%. In the case of `CCCNC(=O)c1nc2c(-c3ccc(F)cc3OC)c(F)ccn2c1N` [Example 121, 3-Amino-7-fluoro-8-(4-fluoro-2-methoxyphenyl)-N-propylimidazo[1,2-a]pyridine-2-carboxamide], the Emax at 0.1 µM worked out at 88%. Still for that read-out and setting: the value for `CCCCNC(=O)c1nc2c(-c3c(F)cccc3OC)c(F)ccn2c1N` [Example 124, 3-Amino-N-butyl-7-fluoro-8-(2-fluoro-6-methoxyphenyl)imidazo[1,2-a]pyridine-2-carboxamide] was 90%; that for `CCCNC(=O)c1nc2c(-c3cccc(C#N)c3)c(F)ccn2c1N` [Example 126, 3-Amino-8-(3-cyanophenyl)-7-fluoro-N-propylimidazo[1,2-a]pyridine-2-carboxamide] was 99%; that for `CCCNC(=O)c1nc2c(-c3c(F)cccc3OC)c(C(F)F)ccn2c1N` [Example 128, 3-Amino-7-(difluoromethyl)-8-(2-fluoro-6-methoxyphenyl)-N-propylimidazo[1,2-a]pyridine-2-carboxamide] was 49%.

As to `CCCNC(=O)c1nc2c(-c3c(F)cccc3OC)c(Cl)ccn2c1N` [Example 130, 3-Amino-7-chloro-8-(2-fluoro-6-methoxyphenyl)-N-propylimidazo[1,2-a]pyridine-2-carboxamide], the Emax at 0.1 µM is 53%. For `CCCNC(=O)c1nc2c(-c3c(F)cccc3OC)c(C)ccn2c1N` [Example 132, 3-Amino-8-(2-fluoro-6-methoxyphenyl)-7-methyl-N-propylimidazo[1,2-a]pyridine-2-carboxamide], the Emax at 0.1 µM is 48%.

As to `CCCNC(=O)c1nc2c(-c3cnoc3C)cccn2c1N` [Example 141, 3-Amino-8-(5-methyl-1,2-oxazol-4-yl)-N-propylimidazo[1,2-a]pyridine-2-carboxamide], the Emax at 0.1 µM is 44%.

The values are drawn from patent EP4703359A1 (Shanghai Simr Biotechnology Co., Ltd., priority 2023, dated 2024).
